This is an account of results in ChEMBL document CHEMBL3507680, “University of Dundee, Gates Library screen for HepG2 cell viability”.

The data set in a line: Human HepG2 cell viability assay in 384 well format. The data set is classed as toxicity, cell-based. More on the design: dose 125 nL, time 70.5 hour; cytotoxicity at 70.5 h: concentration not given beside the values. The conditions noted are these: HepG2 cells, read-out: Inhibition.

Consider `Cc1ccc(-c2cn3c(n2)CO[C@@H](CNCc2cccnc2)C3)cc1`, for which the cytotoxicity at 70.5 h was found to be 11%.

For `C[C@@H](NC(=O)c1cccnc1)c1onc(-c2ccccc2)c1C(=O)O`, the cytotoxicity at 70.5 h was -4.96%.

With `CNC(=O)C(C)(C)N1CCC[C@H]1C(=O)NCC1CC1`, the cytotoxicity at 70.5 h was determined as 9.57%.

As to `c1ccc2c(Cc3nnc([C@H]4CCN(C5CCOCC5)C4)o3)c[nH]c2c1`, the cytotoxicity at 70.5 h was -0.535%.

As to `CC(=O)N1CCOC[C@H](OCC(=O)N(C)C)C1`, the cytotoxicity at 70.5 h worked out at 0.496%.

For `CN1CCN2C(=O)N(C3CCCCC3)C[C@H]2C1`, the cytotoxicity at 70.5 h was -5.56%.

Turning to `CC(C)(O)c1cc(CC2(NCc3ccco3)COC2)no1`, the cytotoxicity at 70.5 h was -7.88%.

With `Cc1cccc2c1nc1n2[C@@H](CNC(=O)c2cnccn2)COC1`, the cytotoxicity at 70.5 h was 12.8%.

`Cc1cccc2c1nc1n2[C@@H](CNC(=O)CCC(=O)O)COC1`: the cytotoxicity at 70.5 h is -4.85%.

With `COc1ccccc1C(=O)NC[C@H]1COCc2nc3c(C)cccc3n21`, the cytotoxicity at 70.5 h is -1.28%.

For the compound `O[C@@H]1C[C@@H](c2nc(Cc3ccccc3)no2)N(Cc2ncc[nH]2)C1`, the cytotoxicity at 70.5 h amounted to 9.72%.

Turning to `Cc1ccc(CN2C[C@H]3CN(C(=O)c4ccno4)CCN3C2=O)cc1`, the cytotoxicity at 70.5 h came to 6.23%.

As for `O=C1NC[C@H]2CN(Cc3ccnc4ccccc34)CCN12`, the cytotoxicity at 70.5 h is -6.05%.

In the case of `CN(C)C(=O)CO[C@H]1COCCN(C2CCOCC2)C1`, the cytotoxicity at 70.5 h is -4.86%.

For `CSCC(=O)N1CCC2(CC1)c1ccccc1CC2O` (configuration not stated), the cytotoxicity at 70.5 h worked out at 16.5%.

As for `COC(=O)C1CCN(C(=O)c2ccc(NS(C)(=O)=O)c(C)c2)CC1`, the cytotoxicity at 70.5 h was -9.09%.

Take `CCCN1CC(C(=O)Nc2ccccn2)CC1=O` (configuration not stated): the cytotoxicity at 70.5 h is -5.78%.

With `COC(=O)C1CCN(C(=O)c2ccc(N(C)S(C)(=O)=O)c(C)c2)CC1`, the cytotoxicity at 70.5 h was -10.1%.

For the compound `Cc1cnc(C)c(N2CCN(Cc3ccc(-c4cc[nH]n4)o3)CC2)n1`, the cytotoxicity at 70.5 h was -12.4%.

`CCN(c1ccc(C(=O)N2CCCC2)cc1)S(=O)(=O)CC`: the cytotoxicity at 70.5 h is -10.8%.

As to `CCC(NC(=O)C1CCN(S(=O)(=O)N(C)C)CC1)c1ccc(C)c(C)c1` (configuration not stated), the cytotoxicity at 70.5 h is -5.81%.

Consider `CCC(C(=O)NCc1ccncc1)N(c1ccc(OC)cc1)S(C)(=O)=O` (configuration not stated), for which the cytotoxicity at 70.5 h was -4.69%.

In the case of `CN1CCC(Oc2ccc(NC(=O)c3cccc(Cl)c3)cc2)CC1`, the cytotoxicity at 70.5 h is -3.56%.

As for `CCC(C(=O)NC)N(c1cccc(C)c1)S(C)(=O)=O` (configuration not stated), the cytotoxicity at 70.5 h was 11.9%.

Regarding `CC(C)(N)CN1CCC(c2nnc(CN3CCCC3)n2C2CC2)CC1`, the cytotoxicity at 70.5 h is -0.439%.

Turning to `CCC(=O)N1CCC(c2nnc(Cn3cncn3)n2C2CC2)CC1`, the cytotoxicity at 70.5 h was 6.31%.

Take `CCCS(=O)(=O)N1CCN(c2ccnc(N3CCCC3)n2)CC1`: the cytotoxicity at 70.5 h was -7.03%.

As for `COc1ccc(NC(=O)Cn2nc(C)c(C)cc2=O)cc1OC`, the cytotoxicity at 70.5 h was 12.7%.

For the compound `COc1ccc(CNC[C@@]2(COc3cccnc3)C[C@@H](O)[C@@H](O)C2)cc1`, the cytotoxicity at 70.5 h amounted to 10.2%.

For `COCCOC[C@]1(CNCc2cccc(OC)c2)C[C@@H](O)[C@@H](O)C1`, the cytotoxicity at 70.5 h stood at 0.877%.

Consider `O=C(NC[C@@]1(COc2cnccn2)C[C@@H](O)[C@@H](O)C1)C1CCCC1`, for which the cytotoxicity at 70.5 h is 10.3%.

For the compound `C[C@@H](NC(=O)c1ccc(Cl)cc1)c1onc(-c2cccnc2)c1C(=O)O`, the cytotoxicity at 70.5 h is -6%.

Take `O=C(NC[C@@]1(COc2cnccn2)C[C@@H](O)[C@@H](O)C1)C1CCOCC1`: the cytotoxicity at 70.5 h was -1.95%.

Consider `O[C@@H]1C[C@@](CNCc2cccc(Cl)c2)(COc2cnccn2)C[C@@H]1O`, for which the cytotoxicity at 70.5 h is -12%.

Turning to `O[C@@H]1C[C@@](CNCC2CC2)(COc2cccnc2)C[C@@H]1O`, the cytotoxicity at 70.5 h was -7.73%.

As to `O[C@@H]1C[C@@](CNCc2ccc(F)cc2)(COc2cccnc2)C[C@@H]1O`, the cytotoxicity at 70.5 h is 0.0431%.

Take `O[C@@H]1C[C@@](CNCc2ccccn2)(COc2cccnc2)C[C@@H]1O`: the cytotoxicity at 70.5 h is -8.64%.
